Reference: paper PMC8493801, “Exploring the Monoterpene Indole Alkaloid Scaffold for Reversing P-Glycoprotein-Mediated Multidrug Resistance in Cancer” (Pharmaceuticals, 2021)

What was measured:
[1] = molecular target: T1, recombinant human P-gp membranes (Homo sapiens, UniProt P08183); test: P-gp ATPase activity assay (Pgp-Glo); format: biochemical; settings: 25 µM; for % basal P-gp activity: basal activity = 100%
T1 construct: purchased Promega
Description: Once it was established that ATP hydrolysis is directly associated with the P-gp efflux activity, the interaction mode between selected compounds (12, 17, 18, 20, and 29) and this transporter protein was further investigated using human P-gp membranes in the ATPase activity assay (P-gp-Glo^TM) to gather insights about their interaction with P-gp activity, namely, as stimulators or inhibitors. This ATPase activity assay is based on the ATP dependence of the light-generating reaction of firefly luciferase. After incubating P-gp with ATP, the reaction is stopped, and the ATP consumption by P-gp is given by a luciferase-generated luminescent signal due to the remaining unmetabolized ATP. Thus, a greater decrease in the signal means a higher P-gp activity.
Sodium orthovanadate (Vanadate, Na3VO4) is an inhibitor of P-gp ATPase activity; thus, after treating samples with vanadate, no P-gp-dependent ATP consumption is observed. Therefore, the P-gp basal ATP consumption (basal activity) is defined as the difference between the luminescent signal of samples treated with vanadate and untreated. Consequently, the tested compounds were ranked as stimulators or inhibitors by comparing their P-gp ATPase activity with the basal activity. Verapamil (0.5 mM), a known P-gp substrate and activator of the ATPase activity of this transporter, thus causing a decrease in the percentage of luminescence of luciferase when compared with untreated samples (Figure 2), was used as control. The results are represented in Figure 2 as the difference between the luminescence of luciferase observed when treated with the compounds and with vanadate in comparison with the basal activity (100%).
The P-glycoprotein ATPase activity was determined using the Pgp-Glo^TM Assay Systems Promega kit according to the manufacturer’s instructions. Briefly, 20 µL of recombinant human P-gp membranes (1.25 mg/mL), expressing high levels of human P-gp, were incubated in 20 µL of Pgp-Glo^TM assay buffer for 5 min at 37 °C. Compounds were tested at 25 µM sodium orthovanadate (Na3VO4, 0.25 mM) as an inhibitor control, verapamil as a substrate control (0.5 mM), and DMSO at 2% as solvent control. The reaction was initiated by adding 10 µL of 25 mM MgATP and incubated at 37 °C for 40 min. The ATPase reaction was stopped, and after adding 50 µL of ATP Detection Reagent, the samples were incubated at room temperature for 20 min. The luciferase-generated luminescent signal emitted was measured in a CLARIOstar Plus plate reader (BMG Labtech, UK) at 580 nm. The % of basal P-gp activity was calculated through the ratio between the luminescence measured of the P-gp ATPase activity of each compound and the basal activity according to Equation (4).
(4) % basal P-gp activity = LumNa3VO4−Lumtreated/LumNa3VO4−Lumuntreated×100%
Figure 2 Effect of compounds 12, 17, 18, 20, 29, and verapamil (VER) on P-gp ATPase activity. The compounds are identified as P-gp substrates if they stimulate its basal activity (>100%) or as modulators when inhibiting basal activity (<100%). Compounds were tested at 25 µM and verapamil at 0.5 mM. Results were calculated as the means ± SD from experiments performed in triplicates.

[2] = system: human ABCB1-transfected L5178Y mouse lymphoma cells; test: Checkerboard combination assay with doxorubicin; format: cell-based; set-up: key to CI at ED50 (combination index): CI <1 synergy, =1 additive, >1 antagonism; settings: MDR cells; for CI at ED50 (combination index): best ratio
Protocol: The in vitro interactions between the compounds and the well-known antitumor drug and P-gp substrate, doxorubicin, were evaluated in a combination chemotherapy model on human ABCB1-transfected mouse T-lymphoma cells. The nature of drug–drug interactions was assessed by determination of the combination index (CI) using the Chou and Talalay method (Figure 1), and therefore evaluated as synergistic (CI < 1), additive (CI = 1), or antagonistic (CI > 1).
Doxorubicin (2 mg/mL, Teva Pharmaceuticals, Budapest, Hungary) was serially diluted horizontally in 100 µL as previously described, starting with 8.6 µM. The resistance modifier was subsequently diluted vertically in 50 µL; the starting concentration was determined based on the IC50. […] The checkerboard plates were kept for 72 h at 37 °C in a CO2 incubator, and at the end of the incubation period, the cell growth was determined by MTT staining method, as described earlier. Drug interactions were evaluated using Calcusyn software. Each dose–response curve (for individual agents as well as combinations) was fit to a linear model using the median effect equation in order to obtain the median effect value (corresponding to the IC50) and slope (m). The goodness-of-fit was assessed using the linear correlation coefficient, r, and only data from analysis with r > 0.90 were presented. The extent of interaction between drugs was expressed using the combination index, in which a CI value close to 1 indicates additivity, while a CI < 1 is defined as synergy and a CI > 1 as antagonism.

[3] = system: sensitive L5178Y mouse T-lymphoma cells (PAR); test: MTT antiproliferative assay, sensitive cells; format: cell-based; settings: 72 h, mean ± SD
Protocol: (§1) Non-cancer mouse embryonic fibroblasts (NIH/3T3) were also used.
(§2) L5178Y mouse T-lymphoma cells (ECACC catalog no. 87111908, US FDA, Silver Spring, MD, USA) were transfected with the pHa MDR1/A retrovirus as previously reported. The ABCB1 (P-gp) overexpressing cells were selected by culturing the infected cells with 60 ng/mL of colchicine (Sigma-Aldrich Chemie GmbH, Steinheim, Germany) to preserve the MDR phenotype. L5178Y (parental, PAR) mouse T-cell lymphoma cells and the human ABCB1-transfected subline were cultured in McCoy’s 5A supplemented with 10% heat-inactivated horse serum, 100 U/L L-glutamine, and 100 mg/L penicillin-streptomycin mixture, all obtained from Sigma-Aldrich. The mouse embryonic fibroblast (NIH 3T3) cell line was purchased from ATCC (CRL-1658) and was cultured in DMEM medium supplemented with 10% fetal bovine serum. These adherent cells were detached using 0.25% trypsin and 0.02% EDTA for 5 min at 37 °C. Before the antiproliferative assay using NIH 3T3 cell line, the cells were seeded in untreated 96-well flat bottomed microtiter plates, following a 4 h incubation period in a humidified atmosphere (5% CO2, 95% air) at 37 °C.
The assay was performed according to the previously applied experimental settings.

[4] = system: mouse embryonic fibroblasts (NIH/3T3); test: MTT antiproliferative assay, non-cancer cells; format: cell-based; settings: for SI C/B (Selectivity Index): IC50 NIH/3T3 / IC50 MDR; for SI C/A (Selectivity Index): IC50 NIH/3T3 / IC50 PAR; for IC50: NIH3T3, non-cancer mouse embryonic fibroblasts, MTT, read-out: IC50 NIH/3T3 (C)
Protocol: as §1
In addition, the antiproliferative activity of the compounds was also evaluated on non-cancerous mouse embryonic fibroblast cells (NIH/3T3), whose values were compared with those of PAR and MDR cells by evaluation of the selective index (SI) values. […] The highest selective index values (SIC/A = 9.39; SIC/B = 10.79) were found for the derivative bearing the trimethoxyphenyl substituent (17).
as §2

[5] = system: human ABCB1-gene transfected L5178Y subline (MDR); settings: for RR (relative resistance ratio) = IC50MDR/IC50PAR: RR ≤ 0.5 means CS effect

T1 sequence (P08183 whole entry): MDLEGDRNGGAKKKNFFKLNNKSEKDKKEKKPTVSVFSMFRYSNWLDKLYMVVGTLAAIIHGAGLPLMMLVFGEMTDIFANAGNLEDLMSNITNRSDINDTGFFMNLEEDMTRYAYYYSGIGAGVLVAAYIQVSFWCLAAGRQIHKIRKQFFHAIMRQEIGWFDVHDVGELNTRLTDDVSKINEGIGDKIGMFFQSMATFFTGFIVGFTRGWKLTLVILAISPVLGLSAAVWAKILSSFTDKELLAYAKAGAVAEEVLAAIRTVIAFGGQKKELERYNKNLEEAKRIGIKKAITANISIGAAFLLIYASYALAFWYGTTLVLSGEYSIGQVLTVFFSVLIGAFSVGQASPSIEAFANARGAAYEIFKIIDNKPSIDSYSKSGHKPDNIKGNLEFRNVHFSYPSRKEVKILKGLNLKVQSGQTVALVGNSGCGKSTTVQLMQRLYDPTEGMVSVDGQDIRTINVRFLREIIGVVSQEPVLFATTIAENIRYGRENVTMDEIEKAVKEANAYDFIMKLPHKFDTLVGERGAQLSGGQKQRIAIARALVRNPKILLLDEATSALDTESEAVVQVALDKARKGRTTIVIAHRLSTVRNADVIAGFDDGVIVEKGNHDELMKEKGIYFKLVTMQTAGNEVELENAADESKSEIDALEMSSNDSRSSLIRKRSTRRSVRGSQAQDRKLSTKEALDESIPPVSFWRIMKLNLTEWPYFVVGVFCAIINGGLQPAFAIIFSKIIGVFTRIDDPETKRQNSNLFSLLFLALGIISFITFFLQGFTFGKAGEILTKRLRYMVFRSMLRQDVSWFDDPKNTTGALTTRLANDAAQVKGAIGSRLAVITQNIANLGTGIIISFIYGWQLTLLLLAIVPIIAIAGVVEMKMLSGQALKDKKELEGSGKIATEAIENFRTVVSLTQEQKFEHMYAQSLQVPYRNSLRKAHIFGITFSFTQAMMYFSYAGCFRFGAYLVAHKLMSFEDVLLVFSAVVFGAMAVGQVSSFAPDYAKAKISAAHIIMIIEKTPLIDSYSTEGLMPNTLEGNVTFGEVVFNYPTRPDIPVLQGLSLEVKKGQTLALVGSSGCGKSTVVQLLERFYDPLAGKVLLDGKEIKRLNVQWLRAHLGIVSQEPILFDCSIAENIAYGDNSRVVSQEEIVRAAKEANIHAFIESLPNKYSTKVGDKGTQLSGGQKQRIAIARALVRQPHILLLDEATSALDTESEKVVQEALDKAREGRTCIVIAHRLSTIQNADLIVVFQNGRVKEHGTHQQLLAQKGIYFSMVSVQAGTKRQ

| SMILES | Effect on P-gp ATPase activity [1] | % basal P-gp activity [1] [%] | Interaction [2] | CI at ED50 (combination index) [2] | IC50 [3] [µM] | SI C/B (Selectivity Index) [4] | SI C/A (Selectivity Index) [4] | IC50 [4] [µM] | IC50 [5] [µM] | RR (relative resistance ratio) = IC50MDR/IC50PAR [5] |
| --- | --- | --- | --- | --- | --- | --- | --- | --- | --- | --- |
| CCC1CN(C)C2Cc3c([nH]c4ccccc34)C(=NNC(=O)Nc3ccc(Br)cc3)CC1C2C(=O)OC (centres unmarked) [Compound 29, 3-[2″-((4‴-bromophenyl)carbamoyl)hydrazineylidene]dregamine] | inhibitors of P-gp ATPase activity | < 100 | Strong Synergism | 0.173 | 6.56 ± 0.04 | 1.76 | 1.99 | 13 ± 0.4 | 7.4 ± 0.2 | 1.13 |
| CCC1CN(C)C2Cc3c([nH]c4ccccc34)C(=NN=Cc3cc(OC)c(OC)c(OC)c3)CC1C2C(=O)OC (centres unmarked) [Compound 17, 3-[(3″,4″,5″-trimethoxybenzylidene)hydrazineylidene]dregamine] | inhibitors of P-gp ATPase activity | < 100 | Synergism | 0.309 | 9.07 ± 0.67 | 10.79 | 9.39 | 85.2 ± 1.62 | 7.9 ± 0.44 | 0.87 |
| CCC1CN(C)C2Cc3c([nH]c4ccccc34)C(=NN=Cc3ccc(N(C)C)cc3)CC1C2C(=O)OC (centres unmarked) [Compound 12, 3-[(4″-(dimethylamino)benzylidene)hydrazineylidene]dregamine] | stimulating the P-gp activity |  | Strong Synergism | 0.231 | 12.8 ± 0.16 | 1.91 | 1.10 | 14.2 ± 0.59 | 7.42 ± 0.48 | 0.58 |
